# In patent US20240425478A1, “CYCLOPENTYLPYRAZOLE CDK2 INHIBITORS” (Genentech, Inc., priority 2021, published 2024):
# Several values for one entry are separate records, joined by “and”; a condition that tells them apart may be missing. Identical values can stand only once. Like-named read-outs stand apart in the source and are kept apart here.
# What was measured:
# [1] = target: T1, Cyclin Dependent Kinase 1/Cyclin A2 (CDK1-cycA2) (Homo sapiens, UniProt P06493); experiment: CDK1-cycA2 TR-FRET (Lance) enzyme assay; assay type: biochemical; details: for Ki: Table O, enzymatic assay; for FS CDK1/CDK2: fold selectivity, enzymatic Ki ratio
# T1 construct: purchased ProQinase 0134-0054-1
# How it was run: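 TR-FRET (Lance) detection of phospho-4E-BP1 with a europium-labelled antibody after EDTA quench (15 mM final); signal taken as acceptor/donor ratio. Enzyme and compound were pre-incubated 30 min in HEPES pH 7.5 buffer with MgCl2, TCEP, BGG and Brij 35. Ki derived by Morrison fit.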
# [2] = target: T2, Cyclin Dependent Kinase 2/Cyclin E1 (CDK2-cycE1) (Homo sapiens, UniProt P24941); experiment: CDK2-cycE1 TR-FRET (LANCE) enzyme assay; assay type: biochemical; details: for FS CDK1/CDK2 / FS CDK4/CDK2: fold selectivity; for FS CDK1/CDK2: enzymatic CDK1 Ki over CDK2 Ki; for FS CDK4/CDK2: enzymatic CDK4 Ki over CDK2 Ki
# T2 construct: purchased ProQinase 0050-0055-1
# How it was run: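 Kinase reaction buffer: 50 mM HEPES pH 7.5, 10 mM MgCl2, 2 mM TCEP, 0.05% BGG, 0.01% Brij 35, with 30 min compound–enzyme pre-incubation.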
# [3] = target: T3, Cyclin Dependent Kinase 4/Cyclin D3 (CDK4-cycD3) (Homo sapiens, UniProt P11802); experiment: CDK4-cycD3 TR-FRET (LANCE) enzyme assay; assay type: biochemical; details: for Ki: Table O, enzymatic assay
# T3 construct: purchased Carna Biosciences 04-105
# How it was run: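 Compound dose responses pre-incubated 30 min with enzyme mix in 50 mM HEPES pH 7.5, 10 mM MgCl2, 2 mM TCEP, 0.05% BGG, 0.01% Brij 35. Reaction quenched with EDTA (15 mM final); Eu-anti-phospho-4E-BP1 TR-FRET detection, acceptor/donor ratio. Ki derived by Morrison equation.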
# [4] = test system: OVISE (JCRB1043, CCNE1-amplified); experiment: OVISE EdU incorporation cell proliferation assay (CDK2-dependent); assay type: cell-based; details: for IC50 / FS SKOV-3/OVISE / FS p-H3/OVISE: Table O; for IC50: cellular assay, read-out: CDK2 OVISE IC50; for FS SKOV-3/OVISE / FS p-H3/OVISE: fold selectivity; for FS SKOV-3/OVISE: cellular SKOV-3 IC50 over OVISE IC50; for FS p-H3/OVISE: cellular p-H3 IC50 over OVISE IC50
# How it was run: (§1)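 EdU incorporation (0.5 μM final, last 8 h) follows a 16 h compound exposure at 37 °C, 5% CO2 in RPMI plus 10% FBS, 0.5% DMSO. After fixation, imaging scores EdU-positive cells; a 4-parameter logistic fit of that fraction gives IC50.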
# SKOV-3 (ATCC HTB-77) = experiment: SKOV-3 EdU incorporation cell proliferation assay (CDK4/6-dependent); assay type: cell-based; details: for IC50: Homo sapiens, SK-OV-3, Table O, cellular assay, read-out: CDK4/6 SKOV-3 IC50; for FS SKOV-3/OVISE: fold selectivity
# How it was run: as §1
# HCT116 cells = experiment: p-H3 HCT-116 mitotic release cell proliferation assay (cellular CDK1); assay type: cell-based; details: for IC50: Homo sapiens, HCT-116, Table O, cellular assay, read-out: CDK1 p-H3 IC50
# How it was run: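 Phospho-Histone H3 (Ser10) in lysates was quantified by a two-antibody HTRF FRET read (≥2 h, room temperature). Before this, HCT116 cells held in mitosis by 16 h of 500 nM nocodazole were treated with compound for 4 h at 37 °C, 0.1% DMSO.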
# [5] = Table O, enzymatic assay, read-out: CDK2 Ki
# [6] = SKOV-3/OVISE fold-selectivity cellular assay data
# T1 sequence (P06493 whole entry): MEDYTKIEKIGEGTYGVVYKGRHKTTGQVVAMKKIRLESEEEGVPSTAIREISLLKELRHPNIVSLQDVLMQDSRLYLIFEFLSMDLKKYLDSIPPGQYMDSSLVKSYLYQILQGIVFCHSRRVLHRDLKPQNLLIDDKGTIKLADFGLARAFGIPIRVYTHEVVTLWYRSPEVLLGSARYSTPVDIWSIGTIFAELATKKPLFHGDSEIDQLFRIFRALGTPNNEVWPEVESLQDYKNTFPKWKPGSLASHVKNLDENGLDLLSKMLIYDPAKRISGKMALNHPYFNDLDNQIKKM
# T1 sequence (P20248 whole entry partner): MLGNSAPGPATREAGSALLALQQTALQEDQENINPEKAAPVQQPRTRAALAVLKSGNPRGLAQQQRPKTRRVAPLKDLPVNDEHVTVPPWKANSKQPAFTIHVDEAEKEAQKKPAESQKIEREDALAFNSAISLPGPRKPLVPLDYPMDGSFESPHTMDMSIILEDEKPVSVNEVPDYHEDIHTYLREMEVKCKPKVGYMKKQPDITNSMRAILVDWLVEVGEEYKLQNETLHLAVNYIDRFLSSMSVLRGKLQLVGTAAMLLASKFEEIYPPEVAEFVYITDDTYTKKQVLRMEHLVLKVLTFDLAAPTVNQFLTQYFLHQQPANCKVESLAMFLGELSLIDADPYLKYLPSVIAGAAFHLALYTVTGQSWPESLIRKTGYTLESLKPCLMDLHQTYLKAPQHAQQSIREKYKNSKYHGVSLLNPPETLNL
# T3 sequence (P11802 whole entry): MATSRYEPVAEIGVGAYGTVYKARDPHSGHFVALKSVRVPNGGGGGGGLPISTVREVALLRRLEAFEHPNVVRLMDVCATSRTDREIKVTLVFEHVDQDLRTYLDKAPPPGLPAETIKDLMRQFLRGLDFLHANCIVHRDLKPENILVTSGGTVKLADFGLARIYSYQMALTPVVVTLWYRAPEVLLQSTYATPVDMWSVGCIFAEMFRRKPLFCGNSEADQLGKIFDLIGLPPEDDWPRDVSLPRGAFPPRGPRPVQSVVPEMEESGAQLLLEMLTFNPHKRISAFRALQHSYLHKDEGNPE
# T3 sequence (P30281 whole entry partner): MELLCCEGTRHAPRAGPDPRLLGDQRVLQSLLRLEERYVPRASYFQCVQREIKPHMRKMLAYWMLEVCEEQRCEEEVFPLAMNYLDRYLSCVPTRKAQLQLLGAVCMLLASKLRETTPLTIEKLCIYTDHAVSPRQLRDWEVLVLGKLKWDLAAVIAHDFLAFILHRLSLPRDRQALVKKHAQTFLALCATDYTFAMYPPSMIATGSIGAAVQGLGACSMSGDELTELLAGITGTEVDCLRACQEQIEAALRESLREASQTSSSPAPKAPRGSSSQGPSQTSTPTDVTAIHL
compound,measurement,setting,value
"CC(C)(C)NC(=O)O[C@@H]1CC[C@H](c2cc(Nc3ccnnc3)n[nH]2)C1 [Example 4K, (1R,3S)-3-(3-(pyridazin-4-ylamino)-1H-pyrazol-5-yl)cyclopentyl tert-butylcarbamate]",Ki,[1],27 nM
same,"FS CDK1/CDK2 increased over Comparator D, (+) sign",[1]; Table R,(+)
same,FS CDK1/CDK2,[1]; Table R,54
same,FS CDK1/CDK2,[1]; Table S,54
same,FS CDK1/CDK2,[1]; Table P,54
same,Ki,[2]; [5],0.45 nM
same,FS CDK1/CDK2,[2]; Table O,54
same,FS CDK4/CDK2,[2]; Table O,104
same,Ki,"[2]; Table R, enzymatic assay, read-out: CDK2 Ki",0.45 nM
same,CDK2 Ki fold change in potency versus Comparator D,"[2]; Table R, in brackets after CDK2 Ki",6 fold
same,Ki,"[2]; Table S, enzymatic assay, read-out: CDK2 Ki",0.45 nM
same,CDK2 Ki fold change in potency versus Comparator E,"[2]; Table S, in brackets after CDK2 Ki",1.2 fold
same,Ki,"[2]; enzymatic assay, Table P, read-out: CDK2 Ki",0.45 nM
same,CDK2 Ki fold potency relative to Comparator A,"[2]; first bracket in CDK2 Ki cell, Table P",0.4 fold
same,Ki,[2]; read-out: CDK2 activity / potency (enzymatic assay),≤ 1 nM and 0.45 nM
same,CDK2 Ki fold potency relative to Comparator B,"[2]; second bracket in CDK2 Ki cell, Table P",2 fold
same,Ki,[3],52 nM
same,"FS CDK4/CDK2 increased over Comparator D, (+) sign",[3]; Table R,(+)
same,"FS CDK4/CDK2 increased over Comparator E, (+) sign",[3]; Table S,(+)
same,CDK2 cell potency compared with Comparator E,[4]; CDK2 OVISE cellular assay data,more potent CDK2 cell inhibitors compared to Comparator E
same,IC50,[4],78 nM
same,FS SKOV-3/OVISE,[4],71
same,FS p-H3/OVISE,[4],2.1
same,CDK2 OVISE IC50 fold change in potency versus Comparator D,"[4]; Table R, in brackets after OVISE IC50",49 fold
same,CDK2 OVISE IC50 fold change in potency versus Comparator E,"[4]; Table S, in brackets after OVISE IC50",2.2 fold
same,CDK2 OVISE IC50 fold potency relative to Comparator A,"[4]; first bracket in OVISE IC50 cell, Table P",0.5 fold
same,CDK2 OVISE IC50 fold potency relative to Comparator B,"[4]; second bracket in OVISE IC50 cell, Table P",1.8 fold
same,IC50,SKOV-3 (ATCC HTB-77),5500 nM
same,CDK2 selectivity over CDK4/6 compared with Comparators A and B,SKOV-3 (ATCC HTB-77); [6],at least three times more CDK2 selective over CDK4/6
same,selectivity for CDK2 over CDK4 compared with Comparator E,SKOV-3 (ATCC HTB-77); [6],increase in selectivity for CDK2 over CDK4
same,"FS SKOV-3/OVISE increased over Comparator D, (+) sign",SKOV-3 (ATCC HTB-77); Table R,(+)
same,FS SKOV-3/OVISE,"SKOV-3 (ATCC HTB-77); Table R, cellular IC50 ratio",71
same,"FS SKOV-3/OVISE increased over Comparator E, (+) sign",SKOV-3 (ATCC HTB-77); Table S,(+)
same,FS SKOV-3/OVISE,"SKOV-3 (ATCC HTB-77); Table S, cellular IC50 ratio",71
same,FS SKOV-3/OVISE compared with Comparator A,"SKOV-3 (ATCC HTB-77); first sign in cell, Table P",(+)
same,FS SKOV-3/OVISE,"SKOV-3 (ATCC HTB-77); cellular IC50 ratio (CDK4/6 over CDK2), Table P",71
same,FS SKOV-3/OVISE compared with Comparator B,"SKOV-3 (ATCC HTB-77); second sign in cell, Table P",(+)
same,"pH3/OVISE fold selectivity (CDK1 over CDK2, cellular assay data)",HCT116 cells,2.1 fold
same,IC50,HCT116 cells,160 nM
same,FS p-H3/OVISE compared with Comparator A,"HCT116 cells; first sign in cell, Table P",(+)
same,FS p-H3/OVISE,"HCT116 cells; fold selectivity, cellular IC50 ratio (CDK1 over CDK2), Table P",2.1
same,FS p-H3/OVISE compared with Comparator B,"HCT116 cells; second sign in cell, Table P",(+)
"Cc1nc(S(C)(=O)=O)ccc1Nc1cc([C@H]2CC[C@@H](OC(=O)NC(C)(C)C)C2)[nH]n1 [Example 4L, (1R,3S)-3-(3-((2-methyl-6-(methylsulfonyl)pyridin-3-yl)amino)-1H-pyrazol-5-yl)cyclopentyl tert-butylcarbamate]",Ki,[1],95 nM
same,Ki,[2]; [5],2.9 nM
same,FS CDK1/CDK2,[2]; Table O,33
same,FS CDK4/CDK2,[2]; Table O,162
same,Ki,[3],470 nM
same,IC50,[4],310 nM
same,FS SKOV-3/OVISE,[4],52
same,FS p-H3/OVISE,[4],1
same,IC50,SKOV-3 (ATCC HTB-77),16000 nM
same,IC50,HCT116 cells,310 nM
"Cn1nc(Nc2cc([C@H]3CC[C@@H](OC(=O)NC(C)(C)C(F)F)C3)[nH]n2)ccc1=O [Example 5C, (1R,3S)-3-(3-((1-methyl-6-oxo-1,6-dihydropyridazin-3-yl)amino)-1H-pyrazol-5-yl)cyclopentyl (1,1-difluoro-2-methylpropan-2-yl)carbamate]",Ki,[1],9.4 nM
same,Ki,[2]; [5],0.3 nM
same,FS CDK1/CDK2,[2]; Table O,31
same,FS CDK4/CDK2,[2]; Table O,433
same,Ki,[3],130 nM
same,IC50,[4],63 nM
same,FS SKOV-3/OVISE,[4],84
same,FS p-H3/OVISE,[4],2.4
same,IC50,SKOV-3 (ATCC HTB-77),5300 nM
same,IC50,HCT116 cells,150 nM
